Counter-ions that a name gives are not always drawn. Like-named read-outs stand apart in the source and are kept apart here.
System: PMS1
Assay: Mini-gene reporter assay-PMS1
Assay type: cell-based
Conditions: Homo sapiens; for IC50: HEK293, PMS1 mini-gene firefly luciferase reporter transiently transfected into HEK293 cells, read-out: PMS1 IC50
How it was run: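 Compound dilution series in duplicate added to transiently transfected HEK293 reporter cells, then incubated; EC50 from Levenberg-Marquardt fit of luminescence. The reporter joins the alternatively skipped exon, its neighbouring introns and exons to firefly luciferase, so induced inclusion gives more signal.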

[1] = at 5 μM, PMS1 mini-gene firefly luciferase reporter in HEK293 cells, read-out: PMS1% Effect at 5 μM

| IC50 | Structure (SMILES) | further results |
| --- | --- | --- |
|  | CCOc1nc(N2CC(CO)C3(CCNCC3)C2)ncc1C(=O)Nc1cn2cc(C)nc2c(C)n1 (stereo not shown) [Compound 91] | activation at 5 µM [1]: < 50% |
| < 0.5 µM | CCOc1nc(N2CCC(CNC)C2)ncc1C(=O)Nc1cc(F)c2nc(C)cn2c1 (stereo not shown) [Compound 211] |  |
| 1 to 3 µM | CCOc1nc(N2CCCNC(CO)C2)ncc1C(=O)Nc1cc(F)c2nc(C)cn2c1 (stereo not shown) [Compound 121] |  |
| > 3 µM | CCOc1nc(N2CCNC(CF)C2)ncc1C(=O)Nc1cc(F)c2nc(C)cn2c1 (stereo not shown) [Compound 111] |  |
| < 0.5 µM | CCOc1nc(N2CCNCC3(CC3)C2)ncc1C(=O)Nc1cc(F)c2nc(C)cn2c1 [Compound 116] |  |
|  | CCOc1nc(N2CCNC3CC32)ncc1C(=O)Nc1cn2cc(C)nc2c(C)n1 (stereo not shown) [Compound 47] | activation at 5 µM [1]: < 50% |
| > 3 µM | Cn1cc2cc(NC(=O)c3cnc(N4CCNCC4)nc3OCC(F)F)cc(F)c2n1 [Compound 302, 4-(2,2-difluoroethoxy)-N-(7-fluoro-2-methyl-2H-indazol-5-yl)-2-(piperazin-1-yl)pyrimidine-5-carboxamide] |  |
| < 0.5 µM | CCOc1nc(N2C[C@H]3CNC[C@H]3C2)ncc1C(=O)Nc1cn2cc(C)nc2c(C)n1 [Compound 84] |  |
| < 0.5 µM | CCOc1nc(N2CC3(CNC3)C2)ncc1C(=O)Nc1cc(F)c2nc(C)cn2c1 [Compound 206] |  |
| < 0.5 µM | CCOc1nc(N2CC3CNCCC32)ncc1C(=O)Nc1cc(F)c2nc(C)cn2c1 (stereo not shown) [Compound 136] |  |
| 1 to 3 µM | CCOc1nc(N(C)C[C@H]2[C@@H]3CNC[C@@H]32)ncc1C(=O)Nc1cc(F)c2nc(C)cn2c1 [Compound 117] |  |
| 0.5 to 1 µM | CCOc1nc(N2C[C@@H](C)N[C@@H](C)C2)ncc1C(=O)Nc1cn2cc(C)nc2c(C)n1 [Compound 67] |  |
| < 0.5 µM | CCOc1nc(N2CCC3(CCCNC3)C2)ncc1C(=O)Nc1cc(F)c2nc(C)cn2c1 (stereo not shown) [Compound 208] |  |
| < 0.5 µM | CCOc1nc(N2CCC(C3NCC3(C)C)CC2)ncc1C(=O)Nc1cc(F)c2nc(C)cn2c1 (stereo not shown) [Compound 123] |  |
| 1 to 3 µM | CCOc1nc(N2CC[C@@H](N(C)C)C2)ncc1C(=O)Nc1cc(F)c2nn(C)cc2c1 [Compound 292, (R)-2-(3-(dimethylamino)pyrrolidin-1-yl)-4-ethoxy-N-(7-fluoro-2-methyl-2H-indazol-5-yl)pyrimidine-5-carboxamide formate] |  |
| 1 to 3 µM | COc1nc(N2CCNCC2)ncc1C(=O)Nc1cc(F)c2nc(C)cn2c1 [Compound 1, N-(8-fluoro-2-methylimidazo[1,2-a]pyridin-6-yl)-4-methoxy-2-(piperazin-1-yl)pyrimidine-5-carboxamide, HCl] |  |
| < 0.5 µM | CCOc1nc(N2CC3(CCNCC3)C2)ncc1C(=O)Nc1cn2cc(C)nc2c(C)n1 [Compound 17] |  |
| < 0.5 µM | CCOc1nc(N2CC3CCC2C2CNCC32)ncc1C(=O)Nc1cc(F)c2nc(C)cn2c1 (stereo not shown) [Compound 128] |  |
| 1 to 3 µM | CCOc1nc(N2CCC(N3CCNCC3)CC2)ncc1C(=O)Nc1cc(F)c2nc(C)cn2c1 [Compound 222] |  |
| > 3 µM | CCOc1nc(N2CC3(CC(NC)CO3)C2)ncc1C(=O)Nc1cn2cc(C)nc2c(C)n1 (stereo not shown) [Compound 33] |  |
| 1 to 3 µM | CCOc1nc(NC2CCNCC2)ncc1C(=O)Nc1cn2cc(C)nc2cn1 [Compound 268, 4-ethoxy-N-(2-methylimidazo[1,2-a]pyrazin-6-yl)-2-(piperidin-4-ylamino) pyrimidine-5-carboxamide formate] |  |
| 0.5 to 1 µM | CCOc1nc(N2CC[C@@H]3CNC[C@@H]32)ncc1C(=O)Nc1cn2cc(C)nc2c(C)n1 (racemic) [Compound 60] |  |
| 1 to 3 µM | CCOc1nc(N2C[C@]3(C)CNC[C@]3(C)C2)ncc1C(=O)Nc1cc(F)c2nc(C)cn2c1 [Compound 148] |  |
|  | CCOc1nc(N2CCNCC2)ncc1C(=O)Nc1cn2cc(C)nc2cc1F [Compound 308, 4-ethoxy-N-(7-fluoro-2-methylimidazo[1,2-a]pyridin-6-yl)-2-(piperazin-1-yl)pyrimidine-5-carboxamide formate] | activation at 5 µM (HEK293, read-out: PMS1% Effect at 5 μM): > 75% |

| Structure (SMILES) | IC50 | further results |
| --- | --- | --- |
| CCOc1nc(N(C)C2CCNCC2C)ncc1C(=O)Nc1cc(F)c2nc(C)cn2c1 (stereo not shown) [Compound 160] | < 0.5 µM |  |
